Like-named read-outs stand apart in the source and are kept apart here.
Legend:
[1] = system: LoVo (human colon adenocarcinoma); test: MTS cytotoxicity assay, LoVo cells; format: cell-based; conditions: 48 h of incubation
Description: (§1) For the evaluation of the cytotoxic effects of the complexes and ligand two human cancer cell lines were used, namely MDA-MB 231 (human breast adenocarcinoma) and LoVo (human colon adenocarcinoma); a normal cell line, human umbilical vein endothelial cells (HUVEC), was used as a reference. […] After 24 h and 48 h, respectively, cell viability was evaluated through MTS assay (data shown in Figures S16–S18) and the IC50 values were calculated (Table 5). The cytotoxicity assay is based on the ability of metabolically active cells to reduce MTS, a yellow tetrazolium salt, to the colored formazan, soluble in the culture medium; the concentration of formazan can be spectrophotometrically determined. […] PES is a cationic dye with high chemical stability that binds to MTS and forms a stable solution. […] The reduced MTS to formazan was spectrophotometrically measured at λ = 492 nm. The test was run on two cancer cell lines, LoVo and MDA-MB 231, and on a normal cell line, HUVEC. […] Cell viability data were obtained in triplicate (n = 3) and expressed as mean values ± standard deviations (SD). […] All assays were performed in 96-well microtiter plates with flat bottom (Falcon), using CellTiter 96 Aqueous One Solution Cell Proliferation Assay (Promega), an MTS-based colorimetric assay. The formazan was spectrophotometrically measured using the Tecan GENios Spectrophotometer.

[2] = system: MDA-MB 231 (human breast adenocarcinoma); test: MTS cytotoxicity assay, MDA-MB 231 cells; format: cell-based
Description: as §1

[3] = system: HUVEC (normal human umbilical vein endothelial cells); test: MTS cytotoxicity assay, HUVEC normal cells; format: cell-based; conditions: 48 h of incubation
Description: as §1

[4] = system: EB-DNA system (CT-DNA); test: Competitive binding assay with ethidium bromide (EB) through fluorescence spectroscopy; set-up: species or system calf; conditions: 10 µM CT-DNA, 2 µM EB; for Ksv (Stern-Volmer quenching constant, EB-DNA system): 0–40 µM compound, λex 500 nm; for K50 (EB Displacement Assay): concentration corresponding to 50% binding
Excerpt: The manner of binding to the DNA macromolecule can be investigated through competitive binding studies with ethidium bromide (3,8-diamino-5-ethyl-6-phenylphenanthridinium bromide), a fluorescent dye; due to its aromatic ring, it can intercalate between two adjacent base pairs in the DNA structure and form a complex which emits fluorescent light; displacing EB results in a quenching effect. The Stern-Volmer constant (KSV) and the dissociation constant (K50) have been calculated from the resulting data.
Competitive binding studies were carried out on a Jasco FP 6500 fluorometer at room temperature, using quartz cells of 1 cm path-length. The fluorescence spectra were recorded on 1.6 mL samples containing 10 µM CT-DNA and 2 µM EB in the absence and presence of increasing amounts (0–40 µM with an increment of 5 µM) of complexes and free ligands, respectively, after being kept in contact for 10 min at room temperature, under continuous stirring and in the dark. The excitation wavelength used was 500 nm and the spectra was recorded in the 520–800 nm range. Two control samples were used, the first one containing DMSO, DNA and EB and the second one just the complex.
Data from the assay can be interpreted using the classical Stern-Volmer equation (Equation (3)):(3) F0/F=1+ KSV·[Q] where F0 and F are the fluorescence intensities of the EB-DNA samples in the absence and presence of the tested compounds and [Q] is the concentration of the compound; KSV is the Stern-Volmer constant and can be calculated from the plot of F0/F vs. [Q] as the slope.
The ratio of binding relative to the control sample exposed only to DMSO was plotted against the logarithm of concentration. The data points were fitted using the modified Hill function with offset (Origin®) (Equation (4)):(4) y=A1+(A2−A1)×x^n/K50^n+x^n where y is the ratio of binding (F/F0) and x is the concentration, A1 is the minimum of y values, A2 is the maximum of y values, K50 is the concentration corresponding to 50% binding and n is the Hill coefficient.

[5] = target: T1, Apo-transferrin (apo-Tf) (Homo sapiens, UniProt P02787); test: Fluorescence quenching of apo-transferrin; format: binding; conditions: for n (Hill Coefficient), apo-Tf / n (Number of Binding Sites), apo-Tf / Ksv (Stern-Volmer constant), apo-Tf / Kq (bimolecular quenching constant), apo-Tf / fa (fraction of fluorophore accessible to the quencher), apo-Tf / Kd / Ka (association binding constant), apo-Tf: 298 K; for Ksv (Stern-Volmer constant), apo-Tf / quenching effect on apo-Tf fluorescence peak: 1 µM apo-Tf; for Ksv (Stern-Volmer constant), apo-Tf: 0–8 µM compound, pH 7.4; for Kq (bimolecular quenching constant), apo-Tf: from KSV = Kq τ0; for fa (fraction of fluorophore accessible to the quencher), apo-Tf: modified Stern-Volmer; for quenching effect on apo-Tf fluorescence peak: compound up to 8 µM, λex 295 nm
T1 construct: purchased Sigma Aldrich Chemical Co. (Schnelldorf, Germany)

[6] = target: T2, Human serum albumin (HSA) (Homo sapiens, UniProt P02768); test: Fluorescence quenching of human serum albumin; conditions: for n (Hill Coefficient), HSA / n (Number of Binding Sites), HSA / Ksv (Stern-Volmer constant), HSA / Kq (bimolecular quenching constant), HSA / fa (fraction of fluorophore accessible to the quencher), HSA / Kd / Ka (association binding constant), HSA: 298 K; for Ksv (Stern-Volmer constant), HSA / quenching effect on HSA fluorescence peak: 2.5 µM HSA; for Ksv (Stern-Volmer constant), HSA: 0–8 µM compound, pH 7.4; for Kq (bimolecular quenching constant), HSA: from KSV = Kq τ0; for fa (fraction of fluorophore accessible to the quencher), HSA: modified Stern-Volmer; for Kd: HSA; for quenching effect on HSA fluorescence peak: compound up to 8 µM, λex 280 nm
[7] = target: T2, Human serum albumin (HSA)
[8] = Homo sapiens, MDA-MB-231, 48 h of incubation

T1 sequence (P02787 20-698): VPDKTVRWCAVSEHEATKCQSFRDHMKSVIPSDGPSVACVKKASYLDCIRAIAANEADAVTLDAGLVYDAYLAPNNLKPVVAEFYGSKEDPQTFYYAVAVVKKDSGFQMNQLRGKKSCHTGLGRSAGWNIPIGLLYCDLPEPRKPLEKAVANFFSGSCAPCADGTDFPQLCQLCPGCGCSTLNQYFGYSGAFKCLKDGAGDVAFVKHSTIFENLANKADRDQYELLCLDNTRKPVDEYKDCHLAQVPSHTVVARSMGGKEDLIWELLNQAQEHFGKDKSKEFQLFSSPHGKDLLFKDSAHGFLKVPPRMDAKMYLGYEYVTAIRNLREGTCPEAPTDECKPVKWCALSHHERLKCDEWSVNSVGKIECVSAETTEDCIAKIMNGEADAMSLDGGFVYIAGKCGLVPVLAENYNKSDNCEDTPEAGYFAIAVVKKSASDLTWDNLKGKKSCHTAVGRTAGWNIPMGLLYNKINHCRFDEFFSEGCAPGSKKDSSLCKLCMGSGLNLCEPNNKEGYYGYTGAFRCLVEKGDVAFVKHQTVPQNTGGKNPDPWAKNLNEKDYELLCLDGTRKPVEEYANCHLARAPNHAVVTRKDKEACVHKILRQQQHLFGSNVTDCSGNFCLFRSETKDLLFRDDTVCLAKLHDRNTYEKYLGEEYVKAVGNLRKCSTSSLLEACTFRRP
T2 sequence (P02768 25-609): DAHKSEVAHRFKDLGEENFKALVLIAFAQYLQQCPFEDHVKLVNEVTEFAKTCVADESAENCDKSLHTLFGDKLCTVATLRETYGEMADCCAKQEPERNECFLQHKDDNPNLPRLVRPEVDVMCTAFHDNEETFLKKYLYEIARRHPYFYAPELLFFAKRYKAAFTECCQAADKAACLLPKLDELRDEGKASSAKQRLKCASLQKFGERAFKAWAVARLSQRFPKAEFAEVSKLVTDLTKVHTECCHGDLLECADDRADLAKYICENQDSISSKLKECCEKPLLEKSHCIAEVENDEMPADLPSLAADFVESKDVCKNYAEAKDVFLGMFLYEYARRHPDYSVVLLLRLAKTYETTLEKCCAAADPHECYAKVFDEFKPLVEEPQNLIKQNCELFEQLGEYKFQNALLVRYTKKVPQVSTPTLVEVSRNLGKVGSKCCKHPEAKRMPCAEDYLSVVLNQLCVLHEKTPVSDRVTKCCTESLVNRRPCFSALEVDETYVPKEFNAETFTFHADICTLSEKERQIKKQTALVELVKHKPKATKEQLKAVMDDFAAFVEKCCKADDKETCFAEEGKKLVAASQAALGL

For `CCn1cc(C(=O)O)c(=O)c2cc3c(cc21)OCO3` [oxo, 5-ethyl-5,8-dihydro-8-oxo-l,3 dioxolo[4,5-g]quinoline-7-carboxylic acid, reference compound], the IC50 ([1]; Homo sapiens, LoVo) was over 200 µM, the IC50 [2, 8] was 43.5 ± 4.94 µM and the IC50 ([3]; Homo sapiens, HUVEC) was over 200 µM. The “Ksv (Stern-Volmer quenching constant, EB-DNA system)” value [4] was “(1.05 ± 0.02) × 10^4”, the “K50 (EB Displacement Assay)” value [4] was 42.07 ± 18.48 µM and the “n (Hill Coefficient), apo-Tf” value [5] was 1.89 ± 1.35. For the same molecule, the “n (Number of Binding Sites), apo-Tf” value [5] was 0.67 ± 0.00, the “Ksv (Stern-Volmer constant), apo-Tf” value [5] was “(17.45 ± 0.95) × 10^4 M^−1” and the “Kq (bimolecular quenching constant), apo-Tf” value (“Kq … apo-Tf” for short) [5] was 1.745e+13 M⁻¹ s⁻¹. The “fa (fraction of fluorophore accessible to the quencher), apo-Tf” value [5] was 0.36±0.01, the Kd ([5]; Kd, apo-Tf) was 8.11 ± 7.34 µM and the “n (Hill Coefficient), HSA” value [6] was 1.62 ± 0.39. For the same molecule, the “n (Number of Binding Sites), HSA” value [6] was 0.90 ± 0.01, the “Ksv (Stern-Volmer constant), HSA” value [6] was “(1.95 ± 0.38) × 10^4 M^−1” and the “Ksv (Stern-Volmer constant), HSA” value ([6]; listed as oxolinic acid) was 1.95 (± 0.38) × 10^4 M^−1. The “Kq (bimolecular quenching constant), HSA” value [6] was 1.95e+12 M⁻¹ s⁻¹, the “fa (fraction of fluorophore accessible to the quencher), HSA” value [6] was 1.92 ± 0.35 and the Kd ([6]; Ka (association binding constant)) was 92.6 µM. For the same molecule, the Kd ([6]; Kd) was 7.26 ± 2.66 µM.
Work on [Gd(oxo)(OH)(H2O)]·0.5H2O [Gd oxo] yielded an IC50 [1] of 56.5 ± 3.83 µM, an IC50 ([2]; 48 h of incubation) of 73.8 ± 18.5 µM and an IC50 [3] of over 200 µM. The “Ksv (Stern-Volmer quenching constant, EB-DNA system)” value [4] was “(1.18 ± 0.01) × 10^4”, the “K50 (EB Displacement Assay)” value [4] was 47.75 ± 25.22 µM and the “Ka (association binding constant), apo-Tf” value (shortened to “Ka … apo-Tf”) [5] was “(0.58 ± 0.25) × 10^4 M^−1”. For the same molecule, the “n (Hill Coefficient), apo-Tf” value [5] was 1.24 ± 0.45, the “n (Number of Binding Sites), apo-Tf” value [5] was 0.76 ± 0.03 and the “Ksv (Stern-Volmer constant), apo-Tf” value [5] was “(17.51 ± 1.06) × 10^4 M^−1”. The “Kq … apo-Tf” value [5] was 1.751e+13 M⁻¹ s⁻¹, the “fa (fraction of fluorophore accessible to the quencher), apo-Tf” value [5] was 0.73 ± 0.02 and the Kd ([5]; read-out: Kd, apo-Tf) was 8.8 ± 6.57 µM. The Kd [7] was 5.32 ± 0.69 µM, the “quenching effect on HSA fluorescence peak” value [6] was ~ 47% and the “Ka (association binding constant), HSA” value [6] was “(1.98 ± 0.82) × 10^5 M^−1”. The “n (Hill Coefficient), HSA” value [6] was 1.81 ± 0.26, the “n (Number of Binding Sites), HSA” value [6] was 1.06 ± 0.03 and the “Ksv (Stern-Volmer constant), HSA” value [6] was “(5.77 ± 0.84) × 10^4 M^−1”. The “Kq (bimolecular quenching constant), HSA” value [6] was 5.77e+12 M⁻¹ s⁻¹ and the “fa (fraction of fluorophore accessible to the quencher), HSA” value [6] was 1.39 ± 0.15.
For `N.N.[Cl][Pt][Cl]` [Cis-Pt, Cisplatin, reference compound], the IC50 [1] was 40.1 ± 13.9 µM and the IC50 [3] was 28.5 ± 6.28 µM.
Molecule [Tb(oxo)(OH)(H2O)] · 0.5 H2O [Tb oxo] has an IC50 [1] of 40.6 ± 7.43 µM, an IC50 ([2]; 48 h of incubation) of over 200 µM and an IC50 [3] of over 200 µM. The “Ksv (Stern-Volmer quenching constant, EB-DNA system)” value [4] was “(1.18 ± 0.00) × 10^4”, the “K50 (EB Displacement Assay)” value [4] was 20.28 ± 1.15 µM and the “quenching effect on apo-Tf fluorescence peak” value [5] was 47.62%. The “Ka … apo-Tf” value [5] was “(1.28 ± 0.17) × 10^4 M^−1”, the “n (Hill Coefficient), apo-Tf” value [5] was 1.57 ± 0.33 and the “n (Number of Binding Sites), apo-Tf” value [5] was 0.81 ± 0.01. For the same molecule, the “Ksv (Stern-Volmer constant), apo-Tf” value [5] was 19.45 (± 1.10) × 10^4 M^−1, the “Ksv (Stern-Volmer constant), apo-Tf” value ([5]; listed as Tb-oxo) was “(19.45 ± 1.10) × 10^4 M^−1” and the “Kq … apo-Tf” value [5] was 1.945e+13 M⁻¹ s⁻¹. For the same molecule, the “fa (fraction of fluorophore accessible to the quencher), apo-Tf” value [5] was 0.77 ± 0.01, the Kd ([5]; read-out: Kd, apo-Tf) was 5.57 ± 1.22 µM and the Kd [7] was 5.97 ± 0.89 µM. The “quenching effect on HSA fluorescence peak” value [6] was 52.63%, the “Ka (association binding constant), HSA” value [6] was 6.83(±1.33) × 10^5 M^−1 and the “n (Hill Coefficient), HSA” value [6] was 1.58 ± 0.20. For the same molecule, the “n (Number of Binding Sites), HSA” value [6] was 1.18 ± 0.01, the “Ksv (Stern-Volmer constant), HSA” value [6] was “(2.84 ± 0.70) × 10^4 M^−1” and the “Kq (bimolecular quenching constant), HSA” value [6] was 2.84e+12 M⁻¹ s⁻¹. For the same molecule, the “fa (fraction of fluorophore accessible to the quencher), HSA” value [6] was 2.13 ± 0.45 and the “Ka (association binding constant), HSA” value ([6]; listed as Tb-oxo) was “(6.83 ± 1.33) × 10^5 M^−1”.
`COc1cccc2c1C(=O)c1c(O)c3c(c(O)c1C2=O)C[C@@](O)(C(=O)CO)C[C@@H]3O[C@H]1C[C@H](N)[C@H](O)[C@H](C)O1` [ADR, adriamycin, reference compound] gave an IC50 [2, 8] of 7.85 ± 0.7 µM.
`CCn1cc(C(=O)[O][Y]([OH])[O]C(=O)c2cn(CC)c3cc4c(cc3c2=O)OCO4)c(=O)c2cc3c(cc21)OCO3.O` [Y oxo, [Y(oxo)(OH)(H2O)]] gave an IC50 [1] of 90.4 ± 9.3 µM, an IC50 ([2]; 48 h of incubation) of 33.2 ± 14.9 µM and an IC50 [3] of over 200 µM. For the same molecule, the “Ksv (Stern-Volmer quenching constant, EB-DNA system)” value [4] was 8.38 (±0.29) × 10^3, the “Ksv (Stern-Volmer quenching constant, EB-DNA system)” value ([4]; listed as Y-oxo) was “(8.38 ± 0.29) × 10^3” and the “K50 (EB Displacement Assay)” value [4] was 28.07 ± 4.44 µM. For the same molecule, the “quenching effect on apo-Tf fluorescence peak” value [5] was 35%, the “Ka … apo-Tf” value [5] was 4.40(±1.09) × 10^4 M^−1 and the “n (Hill Coefficient), apo-Tf” value [5] was 1.58 ± 0.23. The “n (Number of Binding Sites), apo-Tf” value [5] was 0.94 ± 0.01, the “Ksv (Stern-Volmer constant), apo-Tf” value [5] was 6.52 (± 0.56) × 10^4 M^−1 and the “Ksv (Stern-Volmer constant), apo-Tf” value ([5]; listed as Y-oxo) was “(6.52 ± 0.56) × 10^4 M^−1”. For the same molecule, the “Kq … apo-Tf” value [5] was 6.52e+12 M⁻¹ s⁻¹, the “fa (fraction of fluorophore accessible to the quencher), apo-Tf” value [5] was 1.15 ± 0.07 and the “Ka … apo-Tf” value ([5]; listed as Y-oxo) was “(4.40 ± 1.09) × 10^4 M^−1”. The Kd ([5]; read-out: Kd, apo-Tf) was 8.34 ± 1.71 µM, the Kd [7] was 6.3 ± 2.47 µM and the “Ka (association binding constant), HSA” value [6] was “(2.04 ± 0.74) × 10^5 M^−1”. For the same molecule, the “n (Hill Coefficient), HSA” value [6] was 1.52 ± 0.47, the “n (Number of Binding Sites), HSA” value [6] was 1.44 ± 0.03 and the “Ksv (Stern-Volmer constant), HSA” value [6] was “(10.53 ± 0.95) × 10^4 M^−1”. The “Kq (bimolecular quenching constant), HSA” value [6] was 1.053e+13 M⁻¹ s⁻¹ and the “fa (fraction of fluorophore accessible to the quencher), HSA” value [6] was 1.07 ± 0.05.
